Results as given in ChEMBL document CHEMBL3286119, “Biarylmethoxy Nicotinamides As Novel and Specific Inhibitors of Mycobacterium tuberculosis” (ACS Med Chem Lett, 2014).
Values after ≈ are worked out from the molar mass of the structure shown. Active and inactive are the calls of the source. No cut-off for these calls is given here.

Key:
[1] = tested on: Mycobacterium tuberculosis; experiment: Antimicrobial activity against Mycobacterium tuberculosis H37Rv ATCC 27294 after 5 days by microdilution method; format: functional; conditions: H37Rv ATCC 27294, 120 h
[2] = Cytotoxicity against human THP1 cells after 24 hrs by resazurin assay; format: cell-based, THP-1; conditions: read-out: MIC
[3] = Lipophilicity, log D of the compound; format: physicochemical; conditions: octanol/water
[4] = tested on: Mycobacterium tuberculosis; experiment: Antimicrobial activity against ofloxacin Mycobacterium tuberculosis 12119 after 2 to 3 weeks; format: functional, organism-based
[5] = biological target: Cytochrome P450 2C19 (Homo sapiens, UniProt P33261); experiment: Inhibition of CYP2C19 (unknown origin); format: ADME
[6] = tested on: Mycobacterium tuberculosis; experiment: Antimicrobial activity against Mycobacterium tuberculosis ATCC 25618 after 2 to 3 weeks; format: functional, organism-based
[7] = tested on: Escherichia coli; experiment: Antimicrobial activity against Escherichia coli ARC524 after 5 days by microdilution method; format: functional; conditions: ARC524, 120 h
[8] = tested on: Haemophilus influenzae; experiment: Antimicrobial activity against Haemophilus influenzae ARC158 after 5 days by microdilution method; format: functional; conditions: ARC158, 120 h
[9] = tested on: Klebsiella pneumoniae; experiment: Antimicrobial activity against Klebsiella pneumoniae ARC1865 after 5 days by microdilution method; format: functional; conditions: ARC1865, 120 h
[10] = tested on: Staphylococcus aureus; experiment: Antimicrobial activity against Staphylococcus aureus ARC517 after 5 days by microdilution method; format: functional; conditions: ARC517, 120 h
[11] = tested on: Mycobacterium tuberculosis; experiment: Antimicrobial activity against Mycobacterium tuberculosis JALMA clinical isolate after 2 to 3 weeks; format: functional, organism-based
[12] = tested on: Escherichia coli; experiment: Antimicrobial activity against Escherichia coli ARC523 after 5 days by microdilution method; format: functional; conditions: ARC523, 120 h
[13] = tested on: Mycobacterium tuberculosis; experiment: Antimicrobial activity against Mycobacterium tuberculosis Harlingen after 2 to 3 weeks; format: functional, organism-based
[14] = tested on: Mycobacterium tuberculosis; experiment: Antimicrobial activity against Mycobacterium tuberculosis Beijing after 2 to 3 weeks; format: functional, organism-based
[15] = tested on: Mycobacterium tuberculosis; experiment: Antimicrobial activity against Mycobacterium tuberculosis Erdman after 2 to 3 weeks; format: functional, organism-based
[16] = tested on: Pseudomonas aeruginosa; experiment: Antimicrobial activity against Pseudomonas aeruginosa ARC546 after 5 days by microdilution method; format: functional; conditions: ARC546, 120 h
[17] = tested on: Mycobacterium tuberculosis; experiment: Antimicrobial activity against Mycobacterium tuberculosis DKU220 clinical isolate after 2 to 3 weeks; format: functional, organism-based
[18] = tested on: Mycobacterium tuberculosis; experiment: Antimicrobial activity against Mycobacterium tuberculosis ATCC 35811 after 2 to 3 weeks; format: functional, organism-based
[19] = tested on: Mycobacterium tuberculosis; experiment: Antimicrobial activity against Mycobacterium tuberculosis DKU 76 clinical isolate after 2 to 3 weeks; format: functional, organism-based
[20] = tested on: Candida albicans; experiment: Antimicrobial activity against Candida albicans ARC526 after 5 days by microdilution method; format: functional; conditions: ARC526, 120 h
[21] = tested on: Pseudomonas aeruginosa; experiment: Antimicrobial activity against Pseudomonas aeruginosa ARC545 after 5 days by microdilution method; format: functional; conditions: ARC545, 120 h
[22] = tested on: Streptococcus pyogenes; experiment: Antimicrobial activity against Streptococcus pyogenes after 5 days by microdilution method; format: functional; conditions: 120 h
[23] = tested on: Haemophilus influenzae; experiment: Antimicrobial activity against Haemophilus influenzae ARC446 after 5 days by microdilution method; format: functional; conditions: ARC446, 120 h
[24] = tested on: Streptococcus pneumoniae; experiment: Antimicrobial activity against Streptococcus pneumoniae ARC548 after 5 days by microdilution method; format: functional; conditions: ARC548, 120 h
[25] = tested on: Mycobacterium tuberculosis; experiment: Antimicrobial activity against Mycobacterium tuberculosis 97A clinical isolate after 2 to 3 weeks; format: functional, organism-based
[26] = tested on: Mycobacterium tuberculosis; experiment: Antimicrobial activity against Mycobacterium tuberculosis DKU211 clinical isolate after 2 to 3 weeks; format: functional, organism-based
[27] = Selectivity index, ratio of MIC for human THP1 cells to MIC for Mycobacterium tuberculosis H37Rv ATCC 27294; format: toxicity, cell-based, THP-1; conditions: read-out: Selectivity Index
[28] = biological target: Cytochrome P450 2C9 (Homo sapiens, UniProt P11712); experiment: Inhibition of CYP2C9 (unknown origin); format: ADME
Chain of Cytochrome P450 2C9 (P11712 whole entry): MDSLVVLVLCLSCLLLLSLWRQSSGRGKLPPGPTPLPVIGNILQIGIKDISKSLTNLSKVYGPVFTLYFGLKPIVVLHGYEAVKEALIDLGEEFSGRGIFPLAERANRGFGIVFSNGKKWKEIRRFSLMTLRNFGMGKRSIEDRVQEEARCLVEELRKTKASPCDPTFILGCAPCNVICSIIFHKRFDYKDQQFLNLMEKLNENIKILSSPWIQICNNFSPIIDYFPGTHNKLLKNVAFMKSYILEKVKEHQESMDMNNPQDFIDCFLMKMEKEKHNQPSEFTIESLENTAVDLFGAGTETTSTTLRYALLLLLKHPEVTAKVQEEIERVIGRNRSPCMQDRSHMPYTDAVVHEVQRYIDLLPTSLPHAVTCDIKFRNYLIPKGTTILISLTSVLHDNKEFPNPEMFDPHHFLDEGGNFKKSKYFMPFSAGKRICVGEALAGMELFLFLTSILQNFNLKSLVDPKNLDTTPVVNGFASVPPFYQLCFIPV

Chain of Cytochrome P450 2C19 (P33261 whole entry): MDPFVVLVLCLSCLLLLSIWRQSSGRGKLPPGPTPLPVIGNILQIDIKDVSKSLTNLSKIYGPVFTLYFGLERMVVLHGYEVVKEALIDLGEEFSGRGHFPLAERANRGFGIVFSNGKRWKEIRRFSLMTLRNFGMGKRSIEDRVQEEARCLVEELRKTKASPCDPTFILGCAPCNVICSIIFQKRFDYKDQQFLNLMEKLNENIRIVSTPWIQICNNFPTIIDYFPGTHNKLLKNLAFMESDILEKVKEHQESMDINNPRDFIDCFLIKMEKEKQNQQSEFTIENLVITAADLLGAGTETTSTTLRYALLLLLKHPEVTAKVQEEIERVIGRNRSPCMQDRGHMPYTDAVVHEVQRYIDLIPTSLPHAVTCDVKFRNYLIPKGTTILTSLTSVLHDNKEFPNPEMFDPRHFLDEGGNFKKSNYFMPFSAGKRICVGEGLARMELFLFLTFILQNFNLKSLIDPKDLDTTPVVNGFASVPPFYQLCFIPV

## CNS(=O)(=O)c1cccnc1OCc1ccc(-c2ccc(OCCOC)cc2C)cn1
[1]
  MIC: 50 µM (≈ 22.2 µg/mL)
[2]
  MCC at 24 h: > 50 µM

## Cc1cc(OCCN2CCOCC2)ccc1-c1ccc(COc2ncccc2C(N)=O)nc1
[1]
  MIC: 8.9 µM (≈ 3.99 µg/mL)
[2]
  MCC at 24 h: > 50 µM

## COCCOc1ccc(-c2ccc(COc3ncccc3C(=O)NC3CCN(C)CC3)nc2)c(C)c1
[1]
  MIC: 8.1 µM (≈ 3.97 µg/mL)
[2]
  MCC at 24 h: > 50 µM

## COCCOc1ccc(-c2ccc(COc3ncccc3C(=O)N(C)C)nc2)c(C)c1
[1]
  MIC: > 75 µM
[2]
  MCC at 24 h: > 50 µM

## Cc1cc(OCC2CCCO2)ccc1-c1ccc(COc2ncccc2C(N)=O)nc1 (stereo unspecified)
[1]
  MIC: 4.7 µM (≈ 1.97 µg/mL)
[3]
  logD: 2.8
[2]
  MCC at 24 h: > 50 µM

## NC(=O)c1cccnc1OCc1ncc(-c2ccc(OCCCF)cc2Cl)cn1
[4]
  Activity: Active
[5]
  IC50: 18 µM
[6]
  Activity: Active
[7]
  MIC80: > 60 µM
[8]
  MIC80: > 60 µM
[1]
  MIC: 0.12 µM (≈ 0.05 µg/mL)
[9]
  MIC80: > 60 µM
[10]
  MIC80: > 60 µM
[11]
  Activity: Active
[12]
  MIC80: > 60 µM
[13]
  Activity: Active
[14]
  Activity: Active
[15]
  Activity: Active
[16]
  MIC80: > 60 µM
[17]
  Activity: Active
[18]
  Activity: Active
[19]
  Activity: Active
[3]
  logD: 2.8
[20]
  MIC80: > 60 µM
[2]
  MCC at 24 h: > 250 µM
[21]
  MIC: > 60 µM
[22]
  MIC80: > 60 µM
[23]
  MIC80: > 60 µM
[24]
  MIC80: > 60 µM
[25]
  Activity: Active
[26]
  Activity: Active

## COCCOc1ccc(-c2ccc(COc3ncccc3C(=O)N3CCC(O)C3)nc2)c(C)c1 (stereo unspecified)
[1]
  MIC: > 75 µM
[2]
  MCC at 24 h: > 50 µM

## COCCOc1ccc(-c2cnc(COc3ncccc3C(N)=O)nc2)c(C)c1
[7]
  MIC80: > 60 µM
[8]
  MIC80: > 60 µM
[1]
  MIC: 1.5 µM (≈ 0.592 µg/mL)
[9]
  MIC80: > 60 µM
[10]
  MIC80: > 60 µM
[12]
  MIC80: > 60 µM
[16]
  MIC80: > 60 µM
[20]
  MIC80: > 60 µM
[2]
  MCC at 24 h: > 50 µM
[21]
  MIC: > 60 µM
[22]
  MIC80: > 60 µM
[23]
  MIC80: > 60 µM
[24]
  MIC80: > 60 µM

## CC(C)OCCOc1ccc(-c2cnc(COc3ncccc3C(N)=O)nc2)c(Cl)c1
[4]
  Activity: Active
[6]
  Activity: Active
[7]
  MIC80: > 60 µM
[8]
  MIC80: > 60 µM
[1]
  MIC: 0.12 µM (≈ 0.0531 µg/mL)
[9]
  MIC80: > 60 µM
[10]
  MIC80: > 60 µM
[11]
  Activity: Active
[12]
  MIC80: > 60 µM
[13]
  Activity: Active
[14]
  Activity: Active
[15]
  Activity: Active
[16]
  MIC80: > 60 µM
[17]
  Activity: Active
[18]
  Activity: Active
[19]
  Activity: Active
[27]
  selectivity ratio: > 2500
[3]
  logD: 2.8
[20]
  MIC80: > 60 µM
[2]
  MCC at 24 h: > 250 µM
[21]
  MIC: > 60 µM
[22]
  MIC80: > 60 µM
[28]
  IC50: 19 µM
[23]
  MIC80: > 60 µM
[24]
  MIC80: > 60 µM
[25]
  Activity: Active
[26]
  Activity: Active

## COCCOc1ccc(-c2ccc(COc3ncccc3C(=O)NCCO)nc2)c(C)c1
[1]
  MIC: 4.5 µM (≈ 1.97 µg/mL)
[2]
  MCC at 24 h: > 50 µM

## COCCOc1ccc(-c2ccc(COc3nccc(OC)c3C(N)=O)nc2)c(C)c1
[1]
  MIC: 6.2 µM (≈ 2.63 µg/mL)
[2]
  MCC at 24 h: > 50 µM

## COc1ccc(-c2ccc(COc3ncccc3C(N)=O)nc2)c(C)c1
[1]
  MIC: 22 µM (≈ 7.69 µg/mL)
[2]
  MCC at 24 h: > 50 µM

## CCN(CC)CCOc1ccc(-c2ccc(COc3ncccc3C(N)=O)nc2)c(C)c1
[1]
  MIC: > 100 µM
